Test results as given in patent publication US10138211B2, “Crystalline forms of olaparib and manufacturing processes therefor” (ScinoPharm Taiwan, Ltd., priority 2016, dated 2018).
Values after ≈ are worked out from the molar mass of the structure shown.

Tests used:
[1] = Solubility of olaparib at 60° C. in solvents; format: physicochemical
Description: (§1) As used herein, the term “solvent” refers to a liquid substance capable of dissolving olaparib at a concentration of at least about 2.5% (w/w) at 60° C. The term “anti-solvent” refers to a liquid substance which is not capable of dissolving olaparib at a concentration of […] about 2.5% (w/w) at 60° C.

[2] = Solubility of olaparib at room temperature in solvents; format: physicochemical; conditions: for solubility: organic solvent or mixture
Description: as §1

## O=C(c1cc(Cc2n[nH]c(=O)c3ccccc23)ccc1F)N1CCN(C(=O)C2CC2)CC1 [olaparib, 4-[(3-[(4-cyclopropylcarbonyl)piperazin-4-yl]carbonyl)-4-fluorophenyl]methyl(2H)phthalazin-1-one]
[1]; ACN
  Solubility of olaparib at 60° C.: <2.1 wt %
[1]; Cyclohexane
  Solubility of olaparib at 60° C.: <2.1 wt %
[1]; DMAc
  Solubility of olaparib at 60° C.: >23.5 wt %
[1]; EA
  Solubility of olaparib at 60° C.: <1.8 wt %
[1]; EtOH
  Solubility of olaparib at 60° C.: 2.6-2.9 wt %
[1]; IPA
  Solubility of olaparib at 60° C.: <2.1 wt %
[1]; MeOH
  Solubility of olaparib at 60° C.: 6.7-8.8 wt %
[1]; Pyridine
  Solubility of olaparib at 60° C.: >21.5 wt %
[1]; THF
  Solubility of olaparib at 60° C.: <1.9 wt %
[1]; Toluene
  Solubility of olaparib at 60° C.: <1.9 wt %
[1]; Xylenes
  Solubility of olaparib at 60° C.: <1.9 wt %
[1]; acetonitrile (ACN), organic solvent or mixture, ACN
  solubility: < 16.2 mg/mL
[1]; ethanol (EtOH), organic solvent or mixture, EtOH
  solubility: 21 to 23 mg/mL (≈ 48.3 to 52.9 mM)
[1]; isopropanol (IPA), organic solvent or mixture, IPA
  solubility: < 16.2 mg/mL
[1]; methanol (MeOH), organic solvent or mixture, MeOH
  solubility: 53 to 70 mg/mL (≈ 122 to 161 mM)
[1]; n-butanol
  Solubility of olaparib at 60° C.: <2.1 wt %
[1]; n-heptane
  Solubility of olaparib at 60° C.: <2.4 wt %
[1]; organic solvent or mixture, Cyclohexane
  solubility: < 16.2 mg/mL
[1]; organic solvent or mixture, DMAc
  solubility: > 220 mg/mL
[1]; organic solvent or mixture, EA
  solubility: < 16.2 mg/mL
[1]; organic solvent or mixture, Pyridine
  solubility: > 210 mg/mL
[1]; organic solvent or mixture, THF
  solubility: < 16.9 mg/mL
[1]; organic solvent or mixture, Toluene
  solubility: < 16.9 mg/mL
[1]; organic solvent or mixture, Xylenes
  solubility: < 16.2 mg/mL
[1]; organic solvent or mixture, n-butanol
  solubility: < 16.9 mg/mL
[1]; organic solvent or mixture, n-heptane
  solubility: < 16.2 mg/mL
[1]; water
  Solubility of olaparib at 60° C.: <1.6 wt %
  solubility: < 16.2 mg/mL
[2]; AcOH
  Solubility of olaparib at room temperature: >20.0 wt %
[2]; DMSO
  Solubility of olaparib at room temperature: >19.1 wt %
  solubility: > 210 mg/mL
[2]; acetic acid (AcOH), AcOH
  solubility: > 210 mg/mL
